Data from patent US11266626B2, “Reduction of ER-MAM-localized APP-C99 and methods of treating alzheimer's disease” (THE TRUSTEES OF COLUMBIA UNIVERSITY IN THE CITY OF NEW YORK, priority 2015, dated 2022).
“Also recorded” adds a separate entry of the source. Counter-ions that a name gives are not always drawn.

Experiments:
[1] = tested on: APP; settings: cited from earlier work; for Aβ: literature
[2] = tested on: AD mice; settings: cited from earlier work
[3] = tested on: PS-DKO cells; assay: Staining of lipid droplets with LipidTox Green; assay type: cell-based, mouse; settings: BI 100 nM, desipramine 10 μM, GW4869 5 μM, 12-16 h, Gleevec 10 μM
Method: Quantification of total cholesterol and cholesteryl esters was performed using the Cholesterol/Cholesteryl Ester Quantitation kit from Calbiochem (428901). Staining of lipid droplets Staining of lipid droplets was performed using HCS LipidTox™ Deep Green neutral lipid stain (Invitrogen H34475) according to the manufacturer's instructions. Lipid droplet staining was quantified using ImageJ. The different values represent the product of the intensity and the area covered by the fluorescent signal above background in every cell examined.
Staining of lipid droplets was performed using HCS LipidTox™ Deep Green neutral lipid stain (Invitrogen H34475) according to the manufacturer's instructions. Lipid droplet staining was quantified using ImageJ. The different values represent the product of the intensity and the area covered by the fluorescent signal above background in every cell examined.

[4] = target: TRPML1 (Homo sapiens, UniProt Q9GZU1); settings: Shen, D. et al.; cited from earlier work
[5] = tested on: γ-secretase; settings: A2A-AR antagonists; Lu, J. et al.; cited from earlier work
[6] = tested on: PS-DKO cells; assay: Seahorse analysis of mitochondrial respiration (OCR); assay type: cell-based, mouse; settings: BI 100 nM, myriocin 5 μM, TAPI-1 5 μM, 12-16 h, Aβ40:Aβ42 10:1, 6 ng/ml
Method: (§1) Respirometry of cultured cells was performed using the XF24e Extracellular Flux Analyzer (Seahorse Bioscience). Oxygen consumption was measured in basal conditions (Seahorse media with 25 mM glucose and 2 mM pyruvate) and after the sequential addition of 1 μM oligomycin (Complex V inhibitor), 0.75 μM FCCP (uncoupler) and 1 μM rotenone/1 μM antimycin A (Complex I and Complex III inhibitors respectively).
(§2) Respirometry of cultured cells was performed using the XF24e Extracellular Flux Analyzer (Seahorse Bioscience). Oxygen consumption was measured in basal conditions (Seahorse media with 25 mM glucose and 2 mM pyruvate) and after the sequential addition of 1 μM oligomycin (complex V inhibitor), 0.75 μM FCCP (uncoupler), and 1 μM rotenone/1 μM antimycin A (complex I and complex III inhibitors, respectively). All results were averages of five or more biological replicates. Every biological replicate consisted of three technical replicates. For every technical replicate, we plated equal number of cells (25,000 cell/well when MEFs were used, and 50,000 cells/well when human primary fibroblasts were analyzed). The number of cells was also counted after every respirometry assay to correct for cell death. All oxygen consumption (OCR) data were normalized by the number of viable cells or by protein quantity when isolated mitochondria were used.

[7] = Ghanbarabadi et al.; cited from earlier work
[8] = tested on: Aβ42:Aβ40 ratio; assay: Aβ42:Aβ40 ratio (ELISA); assay type: cell-based; settings: PS-mutant cells, desipramine
Method: Detection of Aβ40/Aβ42 levels in cell media was performed by ELISA following manufacturer's instructions (WAKO ELISA kit 294-64701 for Aβ40 and 292-64501 for Aβ42).

[9] = tested on: mitochondrial respiratory supercomplexes; assay: Supercomplex analysis (blue-native gels, in-gel activity and western blot); assay type: cell-based, mouse
Method: Analysis and quantification of mitochondrial respiratory complexes by western blot and enzymatic in-gel activity were carried out as previously reported (Acin-Perez et al., 2008)
Analysis and quantification of mitochondrial respiratory complexes by Western blot and enzymatic in-gel activity were carried out as described (Acin-Perez et al, 2008).

[10] = tested on: PS-DKO cells; assay: Lipidomic analyses of membranes; assay type: cell-based, mouse; settings: PS-DKO cells; BI 100 nM or myriocin 5 μM
Method: (§3) Lipid extracts were prepared via chloroform-methanol extraction, spiked with appropriate internal standards, and analyzed using a 6490 Triple Quadrupole LC/MS system (Agilent Technologies, Santa Clara, Calif.) as described previously (6, 7). Glycerophospholipids and sphingolipids were separated with normal-phase HPLC using an Agilent Zorbax Rx-Sil column (inner diameter 2.1×100 mm) under the following conditions: mobile phase A (chloroform:methanol:1 M ammonium hydroxide, 89.9:10:0.1, v/v) and mobile phase B (chloroform:methanol:water:ammonium hydroxide, 55:39.9:5:0.1, v/v); 95% A for 2 min, linear gradient to 30% A over 18 min and held for 3 min, and linear gradient to 95% A over 2 min and held for 6 min. Quantification of lipid species was accomplished using multiple reaction monitoring (MRM) transitions that were developed in earlier studies (6) in conjunction with referencing of appropriate internal standards: ceramide d18:1/17:0 and sphingomyelin d18:1/12:0 (Avanti Polar Lipids, Alabaster, Ala.).
as §3, with “Lipids were extracted from equal amounts of material (30 μg protein/sample). Lipid extracts” for “Lipid extracts”, “described previously (Chan et al., 2012). Glycerophospholipids and” for “described previously (6, 7). Glycerophospholipids and”, “hydroxide, 89.9:10:0.1, v/v/v) and mobile” for “hydroxide, 89.9:10:0.1, v/v) and mobile”, “hydroxide, 55:39.9:5:0.1, v/v/v); 95% A” for “hydroxide, 55:39.9:5:0.1, v/v); 95% A”, “earlier studies (Chan et al., 2012) in conjunction” for “earlier studies (6) in conjunction”, “Alabaster, Ala.). Values are represented as mole fraction with respect to total lipid (% molarity)” for “Alabaster, Ala.).”
Lipids were extracted from equal amounts of material (30 μg protein/sample). Lipid extracts were prepared via chloroform-methanol extraction, spiked with appropriate internal standards, and analyzed using a 6490 Triple Quadrupole LC/MS system (Agilent Technologies, Santa Clara, Calif.) as described previously (Chan et al, 2012). Glycerophospholipids and sphingolipids were separated with normal-phase HPLC using an Agilent Zorbax Rx-Sil column (inner diameter 2.1×100 mm) under the following conditions: mobile phase A (chloroform:methanol:1 M ammonium hydroxide, 89.9:10:0.1, v/v/v) and mobile phase B (chloroform:methanol:water:ammonium hydroxide, 55:39.9:5:0.1, v/v/v/v); 95% A for 2 min, linear gradient to 30% A over 18 min and held for 3 min, and linear gradient to 95% A over 2 min and held for 6 min. Quantification of lipid species was accomplished using multiple reaction monitoring (MRM) transitions that were developed in earlier studies (Chan et al, 2012) in conjunction with referencing of appropriate internal standards: ceramide d18:1/17:0 and sphingomyelin d18:1/12:0 (Avanti Polar Lipids, Alabaster, Ala., USA). Values are represented as mole fraction with respect to total lipid (% molarity). For this, lipid mass (in moles) of any specific lipid is normalized by the total mass (in moles) of all the lipids measured (Chan et al, 2012). In addition, all of our results were further normalized by protein content.

[11] = tested on: WT MEFs and presenilin-mutant (PS-DKO) cells; assay: Filipin staining of free cholesterol; assay type: cell-based, mouse; settings: presenilin-mutant (PS-DKO) cells; CsA 100 nM; SSO 250 nM
Method: Cells were washed in PBS and fixed in 3% paraformaldehyde at room temperature for 1 h. After washing in PBS three times, samples were incubated in 1.5 mg/ml glycine in 1×PBS to quench the paraformaldehyde and then incubated in 0.05 mg/ml of filipin in PBS/10% FBS for 2 h at room temperature. Free cholesterol signal was visualized in by microscopy and quantified by ImageJ.

[12] = tested on: APP-DKO cells; assay: Seahorse analysis of mitochondrial respiration (OCR); assay type: cell-based, mouse; settings: WT and APP-DKO cells, Aβ42 oligomers 0, 5, 10 μM, 24 h, effect only at 10 μM
Method: as §1
(§4) To analyze the effect of Aβ addition, a mix of Aβ40/Aβ42 at a ratio 10:1 was added to the cultured cells to a final concentration of 6000 pg/ml for 24 h. For Aβ42 oligomer formation, 5 mM of Aβ42 in DMSO was diluted to 100 μM in ice-cold media, vortexed for 30 seconds, and incubated at 4° C. for 24 h. Aβ42 Oligomers were added to the cultured cells to a final concentration of 5 or 10 μM for 24 h.
as §2
as §4, with “6,000” for “6000”, “s,” for “seconds,”, “Aβ42 Oligomers were added to the cultured cells to a final concentration of 5 or 10 μM for 24 h.” left out

TRPML1, sequence (Q9GZU1 whole entry, species assumed): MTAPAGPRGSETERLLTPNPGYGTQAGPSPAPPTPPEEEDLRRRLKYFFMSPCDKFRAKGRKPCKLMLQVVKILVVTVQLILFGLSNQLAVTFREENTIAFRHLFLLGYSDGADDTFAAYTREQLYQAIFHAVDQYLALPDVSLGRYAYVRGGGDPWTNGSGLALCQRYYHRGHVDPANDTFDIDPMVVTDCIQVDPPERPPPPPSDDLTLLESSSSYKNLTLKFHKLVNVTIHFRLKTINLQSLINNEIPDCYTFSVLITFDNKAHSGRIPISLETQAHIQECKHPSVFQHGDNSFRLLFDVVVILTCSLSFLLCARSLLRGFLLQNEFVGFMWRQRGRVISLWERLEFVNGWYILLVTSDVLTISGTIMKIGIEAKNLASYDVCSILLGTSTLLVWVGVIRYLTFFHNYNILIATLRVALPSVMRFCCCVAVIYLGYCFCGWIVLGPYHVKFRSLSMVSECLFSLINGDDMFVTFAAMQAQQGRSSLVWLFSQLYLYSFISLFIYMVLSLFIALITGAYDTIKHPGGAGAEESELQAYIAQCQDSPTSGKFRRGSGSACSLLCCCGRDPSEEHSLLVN

Compound: CCCCCCCC[C@H](SCCCCCC)C(=O)Nc1c(SC)cc(C)nc1SC [CP-113,818]
- Aβ [1]: reduces Aβ

Compound: CC(C)(C)NCC(O)c1cc(Cl)c(N)c(Cl)c1 (stereo not drawn) [Clenbuterol]
- Thr668p (APP phosphorylated at Thr668) ([1]; Chai, G-s. et al.): reduced Thr668p
- α-secretase ([1]; Chai, G-s. et al.): increased α-secretase
- Aβ [1]: decreased Aβ

Compound: O=C1[C@H](CC[C@H](O)c2ccc(F)cc2)[C@@H](c2ccc(O)cc2)N1c1ccc(F)cc1 [Ezetimibe]
- cognition / memory [2]: improves memory in AD mice

Compound: O=C(/C=C/c1ccc(/C=C/C(=O)Nc2ccc(C3=NCCN3)cc2)cc1)Nc1ccc(C2=NCCN2)cc1 [GW4869]
- number of lipid droplets (LDs) [3]: reduced the accumulation of lipid droplets in PS-DKO cells to near-control levels; also recorded: reduced lipid droplet formation

Compound: Cc1ccc(NC(=O)c2ccc(CN3CCN(C)CC3)cc2)cc1Nc1nccc(-c2cccnc2)n1 [Gleevec, imatinib mesylate]
- number of lipid droplets (LDs) [3]: significant reduction of LDs

Compound: CC1CC(C)(C)N(C(=O)CN2C(=O)c3ccccc3C2=O)c2ccccc21 (stereo not drawn) [ML-SA1]
- TRPML1-mediated lysosomal Ca2+ release [4]: enhances TRPML1-mediated lysosomal Ca^2+ release
- cholesterol [4]: reduces cholesterol

Compound: O=C(O)CCCc1ccccc1 [PBA, phenylbutyric acid]
- α- and γ-cleavage of APP ([1]; reference [1]): stimulates both α- and γ-cleavage of APP
- cholesterol defects [2]: rescues cholesterol defects
- cognition / memory [2]: rescues cholesterol defects [4-6] and cognition

Compound: COCCOc1ccc(N2CCN(CCn3ncc4c3nc(N)n3nc(-c5ccco5)nc43)CC2)cc1 [Preladenant]
- Aβ42 [5]: increased Aβ42
- γ-secretase activity [5]: increased γ-secretase activity

Compound: CC(C)C[C@H](CC(=O)NO)C(=O)N[C@@H](Cc1ccc2ccccc2c1)C(=O)N[C@@H](C)C(=O)NCCN [TAPI-1]
- mitochondrial respiration (initial oxygen consumption rate, OCR) [6]: unaffected

Compound: COc1ccc(N2CCOCC2)c2sc(NC(=O)N3CCC(C)(O)CC3)nc12 [Tozadenant]
- Aβ42 [5]: increased Aβ42
- γ-secretase activity [5]: increased γ-secretase activity

Compound: CC(C)=CCC/C(C)=C/COc1ccc2ccc(=O)oc2c1 [auraptene, 7-geranyloxycoumarin]
- memory [7]: enhances memory

Compound: CNCCCN1c2ccccc2CCc2ccccc21 [desipramine]
- number of lipid droplets (LDs) [3]: reduced the accumulation of lipid droplets in PS-DKO cells to near-control levels; also recorded: reduced lipid droplet formation
- Aβ42:Aβ40 ratio [8]: reduced the Aβ42:Aβ40 ratio
- Aβ42:Aβ40 ratio ([8]; listed as Desipramine): significantly reduced the Aβ42:Aβ40 ratio

Compound: CCCCCCC(=O)CCCCCC/C=C/C[C@@H](O)[C@H](O)[C@@](N)(CO)C(=O)O [myriocin]
- mitochondrial respiration (initial oxygen consumption rate, OCR) [6]: reversed the respiratory defect; also recorded: rescued the bioenergetic defect; also recorded: reversed the bioenergetic deficits in these cells
- activity of supercomplexes I+III+IV, I+III and III+IV (in-gel complex I and IV activity) ([9]; mitochondria from PS-DKO cells incubated with BI or myriocin): rescued
- assembly of respiratory supercomplexes (blue-native PAGE western blot) ([9]; mitochondria from PS-DKO cells, anti-complex I and III antibodies): increases the assembly of supercomplexes I+III and I+III+IV
- ceramide levels [10]: significant reductions in ceramide content
- sphingomyelin levels [10]: slight decreases in sphingomyelin

Compound: CCCCCCCC/C=C\CCCCCCCC(=O)ON1C(=O)CC(S(=O)(=O)O)C1=O (stereo not drawn) [sulfo-N-succinimidyl oleate]
- free cholesterol levels (filipin staining) [11]: reduces cholesterol levels in presenilin-mutant cells; also recorded: equally marked reduction in cellular free cholesterol

Compound: Aβ42 oligomers: oligomers formed from synthetic Aβ42 peptide, added at 5 or 10 μM
- mitochondrial respiration (OCR) [12]: slightly decreased
- mitochondrial respiration (OCR) ([12]; listed as Aβ oligomers): had little effect on respiration

Compound: cyclosporin A
- free cholesterol levels (filipin staining) [11]: reduces cholesterol levels in presenilin-mutant cells; also recorded: the increased level of cholesterol seen in PS-mutant cells was reversed
